Experimental data from paper PMC11375437, “Selective labelling of GBA2 in cells with fluorescent β-D-arabinofuranosyl cyclitol aziridines” (Chemical Science, 2024).

Target: T1, GBA2 (Homo sapiens, UniProt Q9HCG7)
T1 sequence (Q9HCG7 1-927): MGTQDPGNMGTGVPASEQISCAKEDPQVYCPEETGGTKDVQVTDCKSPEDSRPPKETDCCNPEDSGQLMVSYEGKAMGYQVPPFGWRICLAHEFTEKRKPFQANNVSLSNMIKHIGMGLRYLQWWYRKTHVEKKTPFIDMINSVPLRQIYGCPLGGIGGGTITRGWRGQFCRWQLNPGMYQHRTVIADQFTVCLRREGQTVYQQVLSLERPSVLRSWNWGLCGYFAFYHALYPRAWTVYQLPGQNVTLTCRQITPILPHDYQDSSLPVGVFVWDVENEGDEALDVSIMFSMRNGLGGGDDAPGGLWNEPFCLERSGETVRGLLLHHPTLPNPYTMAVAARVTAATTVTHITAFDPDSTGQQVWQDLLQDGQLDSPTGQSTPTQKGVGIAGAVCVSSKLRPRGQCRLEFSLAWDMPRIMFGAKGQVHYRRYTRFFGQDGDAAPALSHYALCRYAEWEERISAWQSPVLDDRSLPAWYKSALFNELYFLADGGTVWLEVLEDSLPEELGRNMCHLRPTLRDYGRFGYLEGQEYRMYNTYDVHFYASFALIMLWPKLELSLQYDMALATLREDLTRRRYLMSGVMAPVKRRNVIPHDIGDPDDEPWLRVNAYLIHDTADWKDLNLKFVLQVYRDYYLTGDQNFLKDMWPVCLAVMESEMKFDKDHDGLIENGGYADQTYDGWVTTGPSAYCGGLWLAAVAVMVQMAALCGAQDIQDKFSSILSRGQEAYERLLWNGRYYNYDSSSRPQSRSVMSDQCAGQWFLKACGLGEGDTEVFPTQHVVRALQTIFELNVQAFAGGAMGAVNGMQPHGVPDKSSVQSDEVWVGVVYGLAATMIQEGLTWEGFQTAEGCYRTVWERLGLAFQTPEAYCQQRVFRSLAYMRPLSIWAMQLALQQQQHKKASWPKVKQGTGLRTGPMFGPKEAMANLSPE
Test: In situ labelling/inactivation in intact HEK293T cells (endogenous GBA1, GBA2/GBA3 OE)
Format: cell-based
Parameters: expressed in transfected cells; host or cells: HEK293T GBA1/GBA2 KO (CRISPR/Cas9), GBA2 overexpressed
Conditions: ESI Fig. S8B (24 h incubation)
Method: We next sought to investigate whether we could identify and localize active GBA2 molecules in human cells using our β-D-Araf aziridine ABPs. […] The lysates were then denatured, their protein content separated by SDS-PAGE and the resulting wet gel slabs scanned for fluorescence. Following this procedure, we observed that all three β-D-Araf ABPs 3–5 enter intact cells, where they react with GBA2, and given the enzyme lifetime (>24 h), also with newly synthesized GBA2 (Fig. 5A, ESI Fig. S8A and B ^†).
Figure S7. Fluorescent gel images of in situ labelling of intact HEK293T cells (GBA1 endogenous and GBA2/GBA3 OE) by arabinofuranosyl cyclitol configured ABPs 3-5, 14 and 20 after 1 h incubation. GAA = Lysosomal α glucosidase (EC 3.2.1.20, CAZy GH31).
Figure S8. […] Intact HEK293T cells were treated with β-D-Araf ABPs for 24 h at 37 °C with 7% CO2, then cells were collected and lysed for labelling studies with or without residual β-glucosidases activity read out. […]
2.8 β-Glucosidase inactivation visualized by competitive ABPP with SDS-PAGE In general, samples containing GBA1, GBA2 or GBA3 (see the exact constitution of these samples in the described case) are first incubated (in vitro or in situ) with the inactivator compounds, subsequently, the fluorescent readout ABPs were added and incubated with the mixture to reveal the residual active β-glucosidase enzymes. […]

| Compound | Concentration at which GBA2 is inactivated almost completely in intact cells [nM] |
| --- | --- |
| CC1=CC(C)=[N+]2C1=C(CCCCc1cn(CCCCCCCCN3[C@@H]4[C@H](CO)[C@@H](O)[C@H](O)[C@@H]43)nn1)c1c(C)cc(C)n1[B-]2(F)F (some centres unmarked) [ABP 3] | 100 |
| COc1ccc(C2=[N+]3C(=C(CCCCc4cn(CCCCCCCCN5[C@@H]6[C@H](CO)[C@@H](O)[C@H](O)[C@@H]65)nn4)c4ccc(-c5ccc(OC)cc5)n4[B-]3(F)F)C=C2)cc1 (some centres unmarked) [ABP 4] | 100 |
